Article PMC7954794, “Protein context shapes the specificity of SH3 domain-mediated interactions in vivo” (Nature Communications, 2021)

Columns and labels:
Format in all cases: cell-based, Saccharomyces cerevisiae
BZZ1-1 = experiment: DHFR-PCA on solid medium, bait BZZ1-1 (Fig. 1B); conditions: bait BZZ1-1, label = prey; 4 replicates
Excerpt: Supplement 41467_2021_21873_MOESM8_ESM.xlsx, sheet "Fig1B" | column: medsize; medrep; Score

BEM1-2 = experiment: DHFR-PCA on solid medium, bait BEM1-2 (Fig. 1B); conditions: bait BEM1-2, label = prey; 2-8 replicates
Excerpt: (§1) Supplement 41467_2021_21873_MOESM8_ESM.xlsx, sheet "Fig1B" | column: medsize; medrep; Ratio; Score

BBC1 = experiment: DHFR-PCA on solid medium, bait BBC1 (Fig. 1B); conditions: bait BBC1, label = prey; 2-4 replicates
Excerpt: as §1

BOI2 = experiment: DHFR-PCA on solid medium, bait BOI2 (Fig. 1B); conditions: bait BOI2, label = prey; 3-8 replicates
Excerpt: as §1

BUD14 = experiment: DHFR-PCA on solid medium, bait BUD14 (Fig. 1B); conditions: bait BUD14, label = prey; 4 replicates
Excerpt: as §1

ABP1 = experiment: DHFR-PCA on solid medium, bait ABP1 (Fig. 1B); conditions: bait ABP1, label = prey; 2-4 replicates
Excerpt: as §1

BOI1 = experiment: DHFR-PCA on solid medium, bait BOI1 (Fig. 1B); conditions: bait BOI1, label = prey
Excerpt: as §1

BEM1-1 = experiment: DHFR-PCA on solid medium, bait BEM1-1 (Fig. 1B); conditions: bait BEM1-1, label = prey; 2-8 replicates
Excerpt: as §1

For YAL005C, the “medrep (log2 median colony size normalized to plate background, PCA score)” value (BZZ1-1) was 4.381, the “medrep (log2 median colony size normalized to plate background, PCA score)” value (BEM1-2) was 4.321 and the “medrep (log2 median colony size normalized to plate background, PCA score)” value (BBC1) was 5.353. For the same substance, the “medrep (log2 median colony size normalized to plate background, PCA score)” value (BOI2) was 4.382, the “medrep (log2 median colony size normalized to plate background, PCA score)” value (BUD14) was 4.297 and the “medrep (log2 median colony size normalized to plate background, PCA score)” value (ABP1) was 5.43. The “medrep (log2 median colony size normalized to plate background, PCA score)” value (BOI1; 3-8 replicates) was 3.321, the “Ratio (SH3-deleted/WT medrep)” value (BOI1; only significant differences showed, PPIs completely lost have a ratio of 0.1 and the gained PPIs 2.5) was 1.412 and the “medrep (log2 median colony size normalized to plate background, PCA score)” value (BEM1-1) was 4.321.
